Tests used:
infarcted myocardium = experiment: Autoradiography of MI heart sections from model rats; format: in vivo, Sprague-Dawley rats; settings: 50 μm frozen sections
[1] = Pharmacokinetics (blood clearance) in normal rats; format: in vivo, Sprague-Dawley rats
Protocol: For the pharmacokinetic study, six healthy rats were intravenously injected with ^131I-rhein under anesthesia. The blood samples (10 μL) were collected by means of a tail incision at 5 min, 10 min, 30 min, 1 h, 2 h, 4 h, 6 h, 8 h, 10 h, 12 h and 24 h after administration. The radioactivity of blood samples was measured and the results were expressed as megabecquerel per liter (MBq/L). The blood pharmacokinetic parameters of the radiotracer were analyzed by using the non-compartmental analysis of Drug and Statistics for windows 2.0 software.

[2] = In vitro stability of 131I-rhein in rat serum by radio-HPLC; format: in vitro ADME; settings: 37 °C, 24 h
Protocol: Reversed-phase high performance liquid chromatography (RP-HPLC) was equipped with Waters 2998 PDA detector, HERM LB500 radiometric detector (Berthold Technologies, Germany), a pump (Waters 2695) and a Alltima C18 column (250 × 4.6 mm, 5 μm, GRACE). The mobile phase was methanol/0.1% phosphoric acid in water (80:20, v/v), the flow rate was 1.0 mL/min and the temperature of column was 30 °C. All solvents used for HPLC analysis were HPLC grade.
^131I-rhein was incubated in rat serum at 37 °C for 24 h, and the mixture was mixed with methanol at a ratio of 2:3 and shaken. After centrifuging the mixture at 12000 rpm for 10 min, the supernatant was collected and passed through 0.22-μm pore-size filters (Membrana, Wuppertal, NRW, Germany) for in vitro stability analysis by radio-HPLC as described above.

necrotic muscle [3] = experiment: Biodistribution in mice with muscular necrosis (gamma counting); format: in vivo, Kunming mice; settings: model mice, 0.37 MBq i.v.
Protocol: All animals were given 0.12% potassium iodide in drinking water from 3 days before the experiment till the end of experiment to protect the thyroid gland from taking up free ^131I.
Each mouse was intramuscularly injected with 0.1 mL absolute alcohol in the left hind limb to induce muscular necrosis.
At least 12 h after recovery from surgery, each model mouse was intravenously administrated with 0.37 MBq of ^131I-anthraquinones and each rat was intravenously injected with 3.7 MBq of ^131I-rhein or ^131I-Hyp for pharmacological evaluations. All animals were intravenously administered with 0.1 ml of 1% Evans blue solution for intravital staining of necrosis that helped to selectively sample bluish necrotic tissues for radioactivity quantification.
One hundred and twenty model mice were randomly divided into 24 groups for eight tracers (n = 5 per compound and per time point). Mice were sacrificed by cervical dislocation at 2 h, 12 h and 24 h after administration. Necrotic and normal tissues of interest (blood, thyroid, lung, heart, liver, spleen, stomach, kidney, viable/necrotic muscle) were sampled, and wet weighed with the radioactivity measured by a γ-counter. Background radiation and physical decay were corrected during counting. The results were expressed as percentage of the injected dose per gram of tissue (%ID/g). Ratios of radioactivity concentrations between in necrotic and viable muscle were calculated.

necrotic myocardium [4] = settings: rat, in vivo, iv
necrotic myocardium [5] = experiment: SPECT/CT imaging of rats with reperfused MI or sham operation; format: in vivo, Sprague-Dawley rats; settings: 6 h after administration
necrotic muscle [6] = experiment: TTC staining and quantitative autoradiography of necrotic and viable muscle; set-up: species or system Kunming mice; settings: mouse, in vivo
Protocol: The necrotic muscles were stained in 2% TTC solution at 37 °C for 15 min and digitally photographed, then cut into 50 μm frozen sections with a cryotome (Shandon FSE, Thermo Fisher Scientific Co., Waltham, MA, USA) for autoradiography. Autoradiographs of these sections were obtained by exposure to a high-performance storage phosphor screen (Cyclone; Canberra-Packard, Ontario, Canada) for 6–48 h and digitally photographed with Optiquant software (Pacard, Packard Meriden, CT, USA). Relative tracer concentrations in necrotic muscles were evaluated by regions of interest analysis and the results were compared with that from the corresponding viable muscles.

[7] = In vitro stability of 131I-anthraquinones in rat serum by TLC; format: in vitro ADME; settings: 37 °C, 24 h
Protocol: Iodogen ([…]-3a, 6a-diphenylglycouracil; Sigma, St. Louis, MO) was dissolved in dichloromethane and deposited on the wall of tubes as a thin film. Radioiodination was initiated by adding dimethylsulfoxide (DMSO) solutions of each anthraquinone (1.25 mg/mL) and Na^131I solutions (4:1, v/v) into Iodogen-coated tube, adjusting pH with phosphate buffered saline (PBS, pH 7.4). Then these mixtures were shaken and incubated at 45 °C for 2–4 h, and radiochemical purity was determined by thin-layer chromatography (TLC) using Whatman No.1 filter paper and 0.1 M hydrochloric acid as the developing solvent. Then the solvent was evaporated, the paper was cut in half and measured the radioactivity by direct γ-counting (WIZARD1470; PerkinElmer, USA). For obtaining the injectants, these mixtures were diluted with propylene glycol and polyethylene glycol 400 (1:1, v/v), respectively.
In vitro stability of eight ^131I-anthraquinones were tested in rat serum, 0.1 mL injectant was added to 0.9 mL rat serum (1:9, v/v) and incubated at 37 °C. Then radiolabeling stability was determined by TLC using the procedure described above at the time points of 0.5 h, 6 h, 12 h and 24 h, respectively.

## O=C(O)c1cc(O)c2c(c1)C(=O)c1ccc([131I])c(O)c1C2=O [^131I-rhein]
Infarcted myocardium
  activity in infarcted myocardium relative to viable myocardium (autoradiography): 14 fold
[1]; 6 h
  radioactivity concentration in blood as share of peak radioactivity concentration: 23.47% ± 1.91%
[1]; i.v. 3.7 MBq, blood
  AUC(0 –∞): 211.76 ± 31.18 MBq/L*h
  CLZ (clearance): 0.04 ± 0.01 L/h/kg
  Cmax: 42.40 ± 5.41 MBq/L
  Tmax: 4.8 ± 0 min
  VZ: 0.42 ± 0.06 L/kg
  t1/2z (elimination half-life): 8.20 ± 0.49 h
[1]; i.v. 3.7 MBq, within 24 h, blood
  AUC(0 –t): 187.46 ± 28.26 MBq/L*h
[2]
  intact parent tracer after incubation in rat serum (radio-HPLC): 91.75% ± 0.47%
Necrotic muscle [3]; 2 h after administration
  Blood uptake: 3.14 ± 0.32 %ID/g
  Heart uptake: 0.47 ± 0.05 %ID/g
  Kidney uptake: 2.68 ± 0.47 %ID/g
  Liver uptake: 2.03 ± 0.21 %ID/g
  Lung uptake: 0.95 ± 0.06 %ID/g
  N/V ratio (necrotic muscle/viable muscle): 5.84 ± 0.10
  Necrotic.m (necrotic muscle) uptake: 4.61 ± 0.39 %ID/g
  Spleen uptake: 0.97 ± 0.13 %ID/g
  Stomach uptake: 1.40 ± 0.16 %ID/g
  Thyroid uptake: 1.56 ± 0.17 %ID/g
  Viable.m (viable muscle) uptake: 0.79 ± 0.08 %ID/g
Necrotic muscle [3]; 12 h after administration
  Blood uptake: 1.20 ± 0.13 %ID/g
  Heart uptake: 0.28 ± 0.03 %ID/g
  Kidney uptake: 2.03 ± 0.12 %ID/g
  Liver uptake: 1.55 ± 0.12 %ID/g
  Lung uptake: 0.62 ± 0.05 %ID/g
  N/V ratio (necrotic muscle/viable muscle): 7.26 ± 0.23
  Necrotic.m (necrotic muscle) uptake: 4.06 ± 0.16 %ID/g
  Spleen uptake: 0.65 ± 0.08 %ID/g
  Stomach uptake: 1.05 ± 0.11 %ID/g
  Thyroid uptake: 0.78 ± 0.07 %ID/g
  Viable.m (viable muscle) uptake: 0.56 ± 0.04 %ID/g
Necrotic muscle [3]; 24 h after administration
  Blood uptake: 0.15 ± 0.01 %ID/g
  Heart uptake: 0.08 ± 0.01 %ID/g
  Kidney uptake: 0.65 ± 0.07 %ID/g
  Liver uptake: 0.49 ± 0.05 %ID/g
  Lung uptake: 0.18 ± 0.03 %ID/g
  N/V ratio (necrotic muscle/viable muscle): 12.33 ± 0.67
  Necrotic.m (necrotic muscle) uptake: 0.74 ± 0.04 %ID/g
  Spleen uptake: 0.29 ± 0.03 %ID/g
  Stomach uptake: 0.09 ± 0.02 %ID/g
  Thyroid uptake: 0.32 ± 0.06 %ID/g
  Viable.m (viable muscle) uptake: 0.06 ± 0.00 %ID/g
Necrotic myocardium [4]
  necrotic/viable myocardium ratio: about 9.81 ± 0.61
Necrotic myocardium [4]; 6 h
  radioactivity concentration in blood: 0.36 ± 0.03 %ID/g
  radioactivity concentration in infarcted myocardium: 1.18 ± 0.03 %ID/g
  radioactivity concentration in kidney: 0.68 ± 0.04 %ID/g
  radioactivity concentration in liver: 0.14 ± 0.01 %ID/g
  radioactivity concentration in lung: 0.24 ± 0.02 %ID/g
  radioactivity concentration in viable myocardium: 0.12 ± 0.01 %ID/g
Necrotic myocardium [5]
  SPECT/CT imaging outcome in the heart: Relatively high uptake as a hot spot showed up in the heart of the model rat
Necrotic muscle [6]
  necrotic/viable muscle ratio by quantitative autoradiography: 17.64 ± 1.28
[7]
  stability after incubation in rat plasma (TLC): 93.17% ± 0.38%

## O=C1c2ccccc2C(=O)c2c1ccc([131I])c2O [^131I-1-hydroxyanthraquinone]
Necrotic muscle [3]; 2 h after administration
  Blood uptake: 3.19 ± 0.35 %ID/g
  Heart uptake: 0.58 ± 0.06 %ID/g
  Kidney uptake: 1.64 ± 0.17 %ID/g
  Liver uptake: 1.07 ± 0.11 %ID/g
  Lung uptake: 1.12 ± 0.09 %ID/g
  N/V ratio (necrotic muscle/viable muscle): 3.71 ± 0.37
  Necrotic.m (necrotic muscle) uptake: 2.75 ±0.31 %ID/g
  Spleen uptake: 1.04 ± 0.08 %ID/g
  Stomach uptake: 1.40 ± 0.13 %ID/g
  Thyroid uptake: 1.53 ± 0.21 %ID/g
  Viable.m (viable muscle) uptake: 0.74 ± 0.05 %ID/g
Necrotic muscle [3]; 12 h after administration
  Blood uptake: 0.66 ± 0.04 %ID/g
  Heart uptake: 0.11 ± 0.01 %ID/g
  Kidney uptake: 0.37 ± 0.02 %ID/g
  Liver uptake: 0.24 ± 0.03 %ID/g
  Lung uptake: 0.33 ± 0.04 %ID/g
  N/V ratio (necrotic muscle/viable muscle): 4.22 ± 0.02
  Necrotic.m (necrotic muscle) uptake: 0.59 ± 0.05 %ID/g
  Spleen uptake: 0.26 ± 0.02 %ID/g
  Stomach uptake: 0.82 ± 0.09 %ID/g
  Thyroid uptake: 0.46 ± 0.03 %ID/g
  Viable.m (viable muscle) uptake: 0.14 ± 0.01 %ID/g
Necrotic muscle [3]; 24 h after administration
  Blood uptake: 0.07 ± 0.01 %ID/g
  Heart uptake: 0.02 ± 0.00 %ID/g
  Kidney uptake: 0.04 ± 0.01 %ID/g
  Liver uptake: 0.08 ± 0.01 %ID/g
  Lung uptake: 0.05 ± 0.01 %ID/g
  N/V ratio (necrotic muscle/viable muscle): 5.83 ± 0.29
  Necrotic.m (necrotic muscle) uptake: 0.35 ± 0.02 %ID/g
  Spleen uptake: 0.02 ± 0.00 %ID/g
  Stomach uptake: 0.09 ± 0.01 %ID/g
  Thyroid uptake: 0.33 ± 0.04 %ID/g
  Viable.m (viable muscle) uptake: 0.06 ± 0.00 %ID/g
Necrotic muscle [6]
  necrotic/viable muscle ratio by quantitative autoradiography: 9.16 ± 0.78
[7]
  stability after incubation in rat plasma (TLC): 87.93% ± 0.45%

— publication PMC4754898, “Discovery of Radioiodinated Monomeric Anthraquinones as a Novel Class of Necrosis Avid Agents for Early Imaging of Necrotic Myocardium” (Scientific Reports, 2016)
